Patent US9687467B2, “Diagnosis and treatment of taxane-resistant cancers” (Children's Medical Center Corporation, priority 2011, dated 2017)

System: T20.2 xenografts
Test: Retransplantation xenograft, paclitaxel-resistant clone
Assay type: in vivo, nude mice
Description: FIGS. 6A-6C are a series of graphs showing data that validate the A549 in vivo paclitaxel resistance model. (FIG. 6A) Tumor cell lines established after an initial round of inoculation and treatment with either vehicle (T28.2) or 15 mg/kg paclitaxel (T20.2) were harvested during log-phase growth and reinjected subcutaneously into the flanks of nude mice. When the average tumor volume was ˜120 mm^3, vehicle (open circles or squares) or 15 mg/kg paclitaxel (closed circles or squares) was administered intraperitoneally every other day. Treatment was continued until tumors reached approximately four times their initial volume. Each curve represents the average tumor growth±s.e.m. for 10 mice per group. […] Each bar represents the average tumor growth±s.e.m. for 10 mice per group. NS: not significant, *P<0.05 as determined by Wilcoxon's rank sum test. (FIG. 6C) Tumors were harvested, cultured in vitro and cell viability was assessed using the MTT assay. Values are presented as percentage of cell survival in paclitaxel-treated cells relative to untreated cells. White bars represent LC50s from tumor cell lines established from T28.2 tumors treated with vehicle. Black bars represent LC50s from cell lines established from T20.2 tumors treated with paclitaxel. Shown are the mean±s.e.m. of two independent experiments, each performed in triplicate. *P<0.05 as determined by Wilcoxon's rank sum test. […]

In the case of `CC(=O)O[C@H]1C(=O)[C@@]2(C)[C@H]([C@H](OC(=O)c3ccccc3)[C@]3(O)C[C@H](OC(=O)[C@H](O)[C@@H](NC(=O)c4ccccc4)c4ccccc4)C(C)=C1C3(C)C)[C@]1(OC(C)=O)CO[C@@H]1C[C@@H]2O` [paclitaxel], the “tumor growth after paclitaxel treatment” value (15 mg/kg paclitaxel i.p.) is reported as “only a slight delay in tumor growth” and the “reduction of relative tumor burden at the end of the experiment” value (15 mg/kg paclitaxel i.p. vs vehicle) is reported as 1.4 fold.
